Laboratory results as given in patent US12655116B2, “Substituted isophthalic acid diamides” (Bayer Aktiengesellschaft, priority 2020, dated 2026).

Assays:
[1] = test system: VERPE; assay: Pre-emergence herbicidal action against VERPE; format: in vivo, Veronica persica
Procedure, shortened: (§1)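 Greenhouse pots of sandy loam held seeds covered with soil, onto which the compound was applied before emergence. An aqueous suspension or emulsion of WP or EC was used at 600 to 800 l/ha with 0.2% wetting agent. Percent damage was judged visually at 3 weeks.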

[2] = test system: ALOMY; assay: Pre-emergence herbicidal action against ALOMY; format: in vivo, Alopecurus myosuroides; conditions: for Pre-emergence action against ALOMY (herbicidal activity): 80 g/ha, scored visually after 3 weeks vs untreated controls (100% = plants have died, 0% = like control plants)
Procedure, shortened: as §1

[3] = test system: AVEFA; assay: Post-emergence herbicidal action against AVEFA; format: in vivo, Avena fatua; conditions: 20 g/ha, visual assessment about 3 weeks after treatment, 100% = plants have died, 0% = like control plants
Procedure: Seeds of monocotyledonous and dicotyledonous weed and crop plants are laid out in sandy loam soil in wood-fiber pots, covered with soil and cultivated in a greenhouse under good growth conditions. 2 to 3 weeks after sowing, the test plants are treated at the one-leaf stage. The compounds of the invention, formulated in the form of wettable powders (WP) or as emulsion concentrates (EC), are then sprayed onto the green parts of the plants in the form of an aqueous suspension or emulsion at a water application rate equivalent to 600 to 800 l/ha, with addition of 0.2% wetting agent. After the test plants have been left to stand in the greenhouse under optimal growth conditions for about 3 weeks, the action of the preparations is assessed visually in comparison to untreated controls (herbicidal action in percent (%): 100% activity=the plants have died, 0% activity=like control plants). […] The tables below illustrate, in an illustrative manner, the post-emergence herbicidal action of the compounds of the invention, the herbicidal activity being stated in percent.

[4] = test system: VERPE; assay: Post-emergence herbicidal action against VERPE; format: in vivo, Veronica persica
Procedure, shortened: (§2)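 A WP or EC formulation diluted in water with 0.2% wetting agent was sprayed at 600 to 800 l/ha onto one-leaf-stage plants grown in sandy loam. About 3 weeks later, action was rated visually in percent, 100% being dead plants.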

[5] = test system: VIOTR; assay: Post-emergence herbicidal action against VIOTR; format: in vivo, Viola tricolor
Procedure, shortened: as §2

[6] = test system: AMARE; assay: Post-emergence herbicidal action against AMARE; format: in vivo, Amaranthus retroflexus; conditions: 20 g/ha, visual assessment about 3 weeks after treatment, 100% = plants have died, 0% = like control plants
Procedure, shortened: as §2

[7] = test system: VIOTR; assay: Pre-emergence herbicidal action against VIOTR; format: in vivo, Viola tricolor
Procedure, shortened: as §1

[8] = test system: MATIN; assay: Post-emergence herbicidal action against MATIN; format: in vivo, Matricaria inodora
Procedure, shortened: as §2

[9] = test system: SETVI; assay: Post-emergence herbicidal action against SETVI; format: in vivo, Setaria viridis
Procedure, shortened: as §2

[10] = test system: ECHCG; assay: Post-emergence herbicidal action against ECHCG; format: in vivo, Echinochloa crus-galli
Procedure, shortened: as §2

[11] = test system: PHBPU; assay: Post-emergence herbicidal action against PHBPU; format: in vivo, Pharbitis purpurea
Procedure, shortened: as §2

[12] = test system: ABUTH; assay: Pre-emergence herbicidal action against ABUTH; format: in vivo, Abutilon theophrasti; conditions: for Pre-emergence action against ABUTH (herbicidal activity): 80 g/ha, scored visually after 3 weeks vs untreated controls (100% = plants have died, 0% = like control plants); for Pre-emergence action against ABUTH (herbicidal activity in percent): dosage 20 g/ha, scored visually after 3 weeks vs untreated controls, 100% = plants have died, 0% = like control plants
Procedure, shortened: as §1

[13] = test system: ECHCG; assay: Pre-emergence herbicidal action against ECHCG; format: in vivo, Echinochloa crus-galli
Procedure, shortened: as §1

[14] = test system: AMARE; assay: Pre-emergence herbicidal action against AMARE; format: in vivo, Amaranthus retroflexus
Procedure, shortened: as §1

[15] = test system: ALOMY; assay: Post-emergence herbicidal action against ALOMY; format: in vivo, Alopecurus myosuroides; conditions: dosage 20 g/ha, visual assessment about 3 weeks after treatment vs untreated controls
Procedure, shortened: as §2

[16] = test system: AVEFA; assay: Pre-emergence herbicidal action against AVEFA; format: in vivo, Avena fatua; conditions: 80 g/ha, pre-emergence
Procedure, shortened: as §1

[17] = test system: MATIN; assay: Pre-emergence herbicidal action against MATIN; format: in vivo, Matricaria inodora
Procedure, shortened: as §1

[18] = test system: SETVI; assay: Pre-emergence herbicidal action against SETVI; format: in vivo, Setaria viridis; conditions: dosage 80 g/ha
Procedure, shortened: as §1

[19] = test system: ABUTH; assay: Post-emergence herbicidal action against ABUTH; format: in vivo, Abutilon theophrasti; conditions: visual assessment about 3 weeks after treatment vs untreated controls
Procedure, shortened: as §2

[20] = test system: DIGSA; assay: Pre-emergence herbicidal action against DIGSA; format: in vivo, Digitaria sanguinalis
Procedure, shortened: as §1

[21] = test system: PHBPU; assay: Pre-emergence herbicidal action against PHBPU; format: in vivo, Pharbitis purpurea; conditions: dosage 80 g/ha
Procedure, shortened: as §1

[22] = 20 g/ha, scored visually after 3 weeks vs untreated controls, 100% = plants have died, 0% = like control plants
[23] = 80 g/ha, scored visually after 3 weeks vs untreated controls (100% = plants have died, 0% = like control plants)

SMILES	Pre-emergence action against VERPE in % ([1]; dosage 80 g/ha)	Pre-emergence action against ALOMY (herbicidal activity) [2]	Post-emergence action at 20 g/ha against AVEFA in % [3]	Post-emergence action at 20 g/ha against AMARE in % [6]	Pre-emergence action against VIOTR in % ([7]; dosage 80 g/ha)	Post-emergence action against MATIN in % ([8]; dosage 20 g/ha)	Post-emergence action against SETVI in % ([9]; dosage 20 g/ha)	Post-emergence action against ECHCG in % ([10]; dosage 20 g/ha)	Post-emergence action against PHBPU in % ([11]; dosage 20 g/ha)	Pre-emergence action against ABUTH (herbicidal activity) [12]	Pre-emergence action against ABUTH (herbicidal activity in percent) [12]	Pre-emergence action against ECHCG in % ([13]; 80 g/ha)	Pre-emergence action against AMARE in % [14, 22]	Pre-emergence action against AMARE in % [14, 23]	Pre-emergence action against AVEFA in % [16]	Pre-emergence action against MATIN in % ([17]; dosage 20 g/ha)	Pre-emergence action against MATIN in % ([17]; dosage 80 g/ha)	Pre-emergence action against SETVI in % [18]	Pre-emergence action against VIOTR in % ([7]; dosage 20 g/ha)	Post-emergence action against ABUTH in % ([19]; dosage 20 g/ha)	further results
CSc1c(C(=O)Nc2nnnn2C)ccc(C(F)(F)F)c1C(=O)NCC1CC1 [Example 1-84]	100%	100%	80%	100%	100%	90%	100%	100%	90%	100%	100%	100%	100%	100%	100%	100%	100%	100%	–	–	Pre-emergence action against VERPE in % ([1]; dosage 20 g/ha): 80%; Post-emergence action against VERPE in % ([4]; 20 g/ha): 90%; Post-emergence action against VIOTR in % ([5]; 5 g/ha): 100%; Post-emergence action against VIOTR in % ([5]; 20 g/ha): 100%; Post-emergence action against SETVI in % ([9]; dosage 5 g/ha): 100%; Post-emergence action against PHBPU in % ([11]; dosage 5 g/ha): 90%; Post-emergence action against ALOMY in % [15]: 100%
CSc1c(C(=O)Nc2nnnn2C)ccc(C(F)F)c1C(=O)NC(C)C1CC1 (stereo not shown) [Example 1-353]	100%	90%	80%	100%	100%	90%	100%	100%	90%	100%	100%	100%	100%	100%	–	100%	100%	100%	100%	80%	Post-emergence action against VERPE in % ([4]; 5 g/ha): 80%; Post-emergence action against VERPE in % ([4]; 20 g/ha): 90%; Post-emergence action against VIOTR in % ([5]; 5 g/ha): 100%; Post-emergence action against VIOTR in % ([5]; 20 g/ha): 100%; Post-emergence action against MATIN in % ([8]; dosage 5 g/ha): 80%; Post-emergence action against ECHCG in % ([10]; dosage 5 g/ha): 100%; Pre-emergence action against ECHCG in % ([13]; 20 g/ha): 90%; Post-emergence action against ALOMY in % [15]: 80%
CCn1nnnc1NC(=O)c1ccc(C(F)(F)F)c(C(=O)NCC(F)(F)F)c1C [Example 2-29]	–	80%	80%	–	100%	80%	80%	80%	80%	100%	100%	100%	100%	100%	100%	100%	100%	100%	100%	80%	Pre-emergence action against DIGSA in % ([20]; dosage 20 g/ha): 90%; Pre-emergence action against DIGSA in % ([20]; dosage 80 g/ha): 100%; Pre-emergence action against PHBPU in % [21]: 80%
CSc1c(C(=O)Nc2nnnn2C)ccc(C(F)(F)F)c1C(=O)NC(C)C1CC1 (stereo not shown) [Example 1-352]	100%	80%	80%	100%	100%	90%	100%	100%	90%	100%	100%	100%	100%	100%	80%	100%	100%	100%	100%	100%	Pre-emergence action against VERPE in % ([1]; dosage 20 g/ha): 90%; Post-emergence action against VERPE in % ([4]; 20 g/ha): 90%; Post-emergence action against VIOTR in % ([5]; 5 g/ha): 100%; Post-emergence action against VIOTR in % ([5]; 20 g/ha): 100%; Post-emergence action against MATIN in % ([8]; dosage 5 g/ha): 80%; Post-emergence action against SETVI in % ([9]; dosage 5 g/ha): 80%; Post-emergence action against ECHCG in % ([10]; dosage 5 g/ha): 100%; Post-emergence action against ALOMY in % [15]: 80%
CCc1c(C(=O)Nc2nnnn2CC)ccc(C(F)(F)F)c1C(=O)NC(C)C1CC1 (stereo not shown) [Example 2-341]	90%	90%	90%	100%	100%	80%	–	90%	80%	100%	100%	100%	100%	100%	90%	100%	100%	90%	90%	80%	Pre-emergence action against ALOMY ([2]; 20 g/ha, scored visually after 3 weeks, 100% = plants have died, 0% = like control plants): 80%; Pre-emergence action against PHBPU in % [21]: 80%; Post-emergence action against ECHCG in % ([10]; dosage 5 g/ha): 80%
CCn1nnnc1NC(=O)c1ccc(C(F)F)c(C(=O)NC2CC2)c1SC [Example 2-89]	90%	100%	80%	100%	100%	90%	100%	90%	80%	100%	100%	90%	90%	100%	90%	90%	100%	100%	90%	90%	Post-emergence action against VERPE in % ([4]; 5 g/ha): 80%; Post-emergence action against VERPE in % ([4]; 20 g/ha): 90%; Post-emergence action against VIOTR in % ([5]; 5 g/ha): 90%; Post-emergence action against VIOTR in % ([5]; 20 g/ha): 90%; Post-emergence action against MATIN in % ([8]; dosage 5 g/ha): 90%; Post-emergence action against SETVI in % ([9]; dosage 5 g/ha): 90%; Post-emergence action against ALOMY in % [15]: 90%; Post-emergence action against ABUTH in % ([19]; dosage 5 g/ha): 90%
